The values below come from patent US8022205B2, “Pyrimidine derivatives as PI3K inhibitor and use thereof” (Chugai Seiyaku Kabushiki Kaisha, priority 2006, dated 2011).

Assay [1] concerns human colon cancer cell line HCT116. Nature of the assay: Cell proliferation inhibitory activity (Cell Counting Kit-8), colon cancer HCT116. It is filed as cell-based. Conditions: HCT-116, 96 h, HCT116, 4 days. The method, then: (§1) The cell proliferation inhibitory activity was measured for compounds of the present invention represented by formula (I). Cancer cell proliferation inhibitory activity was measured using the Cell Counting Kit-8 (Dojindo). 2000 cells each of human colon cancer cell line HCT116 purchased from the American Type Culture Collection (Virginia, USA) were seeded into each well of a 96-well culture plate followed by the addition of a predetermined concentration of the compounds and cultivating in a CO2environment for 4 days at 37° C. On the fourth day of cultivating, the Cell Counting Kit-8 solution was added and absorbance (measuring wavelength: 450 nm, reference wavelength: 615 nm) was measured in accordance with the protocol provided with the kit.
(In general: Tetrazolium dyes change colour on reduction, which living cells bring about.)

For assay [2], the system named is human prostate cancer cell line PC3. The assay is described as follows: Cell proliferation inhibitory activity (Cell Counting Kit-8), prostate cancer PC3. It is filed as cell-based. Conditions: 96 h, PC3, 4 days. Here is the method:
as §1
(§2) Cancer cell proliferation inhibitory activity was also measured for human lung cancer cell line NCI-H460 and human prostate cancer cell line PC3 purchased from the American Type Culture Collection. 1000 and 3000 cells of NCI-H460 and PC3, respectively, were seeded into each well of a 96-well culture plate followed by testing in the same manner as the human colon cancer cell line and calculating the percentage of cell proliferation inhibition at 2.5 μM.

The subject of assay [3] is human lung cancer cell line NCI-H460. The assay is described as follows: Cell proliferation inhibitory activity (Cell Counting Kit-8), lung cancer NCI-H460. Type of assay: cell-based. Conditions: 96 h, NCI-H460, 4 days, read-out: Cell proliferation inhibitory activity (% Inhibition at 2.5 μM) Non-small cell lung cancer (NCI-H460). Here is the method: as §1, §2
The target in the next assay is human PI3K(p110α/p85α) (Homo sapiens, UniProt P42336). The assay is described as follows: Measurement of PI3K inhibitory activity (AlphaScreen GST Detection Kit). Conditions: 10 μM ATP, 4 μM PI(4,5)P2, read-out: Enzyme inhibitory activity (IC50, μM) PI3K α. It is filed as biochemical. The method, then:
The inhibitory activity of compounds of the present invention represented by formula (I) were measured with human PI3K(p110α/p85α) prepared in a baculovirus expression system using the AlphaScreen GST Detection Kit (Perkin Elmer, Inc.). A predetermined concentration of the compound dissolved in dimethylsulfoxide (DMSO) and PI3K were mixed in a 384-well assay plate and after allowing to stand for 20 minutes at room temperature, 4 μM PI(4,5)P2 (Echelon Corporation) and 10 μM ATP (5 mM Hepes, pH 7.5, 2.5 mM MgCl2) were added to initiate the reaction. After reacting for 15 minutes at 37° C., GST-GRP1 expressed and purified from Escherichia coli, Anti-GST Acceptor Beads (Perkin Elmer, Inc.), Streptavidin Donor Beads (Perkin Elmer, Inc.) and biotin-PI(3,4,5) P3 (Echelon Corporation) (10 mM Tris-HCl pH 7.4, 150 mM NaCl, 7.5 mM EDTA, 1 mM DTT, 0.1% Tween 20) were added, and after allowing to stand for 1 hour at room temperature, light at 520 to 620 nm emitted as a result of exciting with light at 680 nm was measured with the Envision measuring instrument (Perkin Elmer, Inc.).
Test Example 1 described above can be performed according to “Analytical Biochemistry, 2003, 313, 234-245; Alexander Gray et al”.
On the technique in general: Bead proximity is the source of the signal in Alpha formats.

Sequence of human PI3K(p110α/p85α) (P42336 whole entry): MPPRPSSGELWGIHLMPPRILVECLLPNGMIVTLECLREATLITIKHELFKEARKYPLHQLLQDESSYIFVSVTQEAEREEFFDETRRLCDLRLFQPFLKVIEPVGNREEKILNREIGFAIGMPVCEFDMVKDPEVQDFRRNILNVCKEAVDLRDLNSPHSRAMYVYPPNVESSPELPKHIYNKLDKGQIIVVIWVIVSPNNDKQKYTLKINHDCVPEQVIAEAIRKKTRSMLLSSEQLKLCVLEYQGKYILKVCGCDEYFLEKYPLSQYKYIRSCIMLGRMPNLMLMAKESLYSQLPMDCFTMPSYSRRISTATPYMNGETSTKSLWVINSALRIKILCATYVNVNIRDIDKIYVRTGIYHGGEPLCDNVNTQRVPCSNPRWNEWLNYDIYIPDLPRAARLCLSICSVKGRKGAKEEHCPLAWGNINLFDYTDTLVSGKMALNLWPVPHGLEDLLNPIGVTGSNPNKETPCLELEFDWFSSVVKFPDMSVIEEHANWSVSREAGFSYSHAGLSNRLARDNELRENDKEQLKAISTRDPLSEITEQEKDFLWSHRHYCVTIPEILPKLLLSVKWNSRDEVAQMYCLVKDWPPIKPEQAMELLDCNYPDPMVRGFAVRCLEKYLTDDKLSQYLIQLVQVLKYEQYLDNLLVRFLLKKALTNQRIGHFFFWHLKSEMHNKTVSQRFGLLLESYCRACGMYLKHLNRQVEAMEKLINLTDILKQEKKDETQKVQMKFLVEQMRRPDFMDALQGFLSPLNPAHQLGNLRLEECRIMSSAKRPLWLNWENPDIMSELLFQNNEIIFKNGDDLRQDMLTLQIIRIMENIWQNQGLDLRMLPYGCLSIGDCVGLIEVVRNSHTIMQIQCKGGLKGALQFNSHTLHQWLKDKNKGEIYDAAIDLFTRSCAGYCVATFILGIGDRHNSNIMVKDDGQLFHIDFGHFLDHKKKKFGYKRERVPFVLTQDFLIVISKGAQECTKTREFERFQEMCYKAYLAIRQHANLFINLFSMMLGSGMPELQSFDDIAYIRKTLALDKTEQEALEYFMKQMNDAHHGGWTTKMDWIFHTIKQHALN
Sequence of human PI3K(p110α/p85α) (P27986 whole entry partner): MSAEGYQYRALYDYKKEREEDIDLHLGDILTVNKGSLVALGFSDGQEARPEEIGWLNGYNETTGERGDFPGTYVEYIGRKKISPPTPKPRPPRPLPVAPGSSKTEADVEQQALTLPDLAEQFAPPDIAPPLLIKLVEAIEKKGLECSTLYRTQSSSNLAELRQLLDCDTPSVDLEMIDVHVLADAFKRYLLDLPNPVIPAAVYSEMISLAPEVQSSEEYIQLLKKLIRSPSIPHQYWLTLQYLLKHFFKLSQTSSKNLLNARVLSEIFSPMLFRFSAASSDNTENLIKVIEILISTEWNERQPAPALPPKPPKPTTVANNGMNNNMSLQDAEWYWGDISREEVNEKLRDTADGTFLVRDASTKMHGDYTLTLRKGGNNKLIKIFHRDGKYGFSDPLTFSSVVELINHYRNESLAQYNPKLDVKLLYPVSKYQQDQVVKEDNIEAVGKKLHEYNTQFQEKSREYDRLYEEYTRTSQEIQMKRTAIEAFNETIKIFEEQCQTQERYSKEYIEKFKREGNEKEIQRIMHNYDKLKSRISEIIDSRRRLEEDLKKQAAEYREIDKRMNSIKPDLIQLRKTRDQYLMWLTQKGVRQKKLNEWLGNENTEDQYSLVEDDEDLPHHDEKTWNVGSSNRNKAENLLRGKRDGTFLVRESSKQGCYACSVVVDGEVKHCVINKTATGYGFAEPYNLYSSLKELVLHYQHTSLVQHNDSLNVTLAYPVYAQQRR

In the case of `CCN1CCN(C(=O)c2cc(F)c(NC(=O)N3CCc4c(-c5cnc(N)nc5)nc(N5CCOCC5)nc43)c(F)c2)CC1` [Example D-24, 4-(2-Amino-pyrimidin-5-yl)-2-morpholin-4-yl-5,6-dihydro-pyrrolo[2,3-d]pyrimidine-7-carboxylic acid [4-(4-ethyl-piperazine-1-carbonyl)-2,6-difluoro-phenyl]-amide], the figures for the inhibition at 2.5 µM in assay [1], in assay [2] and in assay [3] were 88%, 91% and 94%, respectively. Moreover, the IC50 on human PI3K(p110α/p85α) was 0.034 µM.
`Nc1ncc(-c2nc(N3CCOCC3)nc3c2CCN3C(=O)Nc2ccc(NCCN3CCOCC3)cc2)cn1` [Example D-108, 4-(2-Amino-pyrimidin-5-yl)-2-morpholin-4-yl-5,6-dihydro-pyrrolo[2,3-d]pyrimidine-7-carboxylic acid [4-(2-morpholin-4-yl-ethylamino)-phenyl]-amide]: the inhibition at 2.5 µM in assay [1] amounted to 92%; in assay [2] it was 90%; in assay [3], 95%. Also, at human PI3K(p110α/p85α), the 50% inhibitory concentration (IC50) came out at 0.007 µM.
Take `CCN1CCN(C(=O)c2ccc(N3CCc4c(-c5cnc(N)nc5)nc(N5CCOCC5)nc43)c(F)c2)CC1` [Example D-138, {4-[4-(2-Amino-pyrimidin-5-yl)-2-morpholin-4-yl-5,6-dihydro-pyrrolo[2,3-d]pyrimidin-7-yl]-3-fluoro-phenyl}-(4-ethyl-piperazin-1-yl)-methanone]: the inhibition at 2.5 µM in assay [1] is 82%; in assay [2], 85%; in assay [3], 86%. Moreover, the half-maximal inhibitory concentration (IC50) on human PI3K(p110α/p85α) stood at 0.11 µM.
For `CN1CCN(C(=O)c2ccc(N3CCc4c(-c5cnc(N)nc5)nc(N5CCOCC5)nc43)cc2)CC1` [Example D-42, {4-[4-(2-Amino-pyrimidin-5-yl)-2-morpholin-4-yl-5,6-dihydro-pyrrolo[2,3-d]pyrimidin-7-yl]-phenyl}-(4-methyl-piperazin-1-yl)-methanone], the inhibition at 2.5 µM turned out to be 91% in assay [1], 88% in assay [2] and 94% in assay [3]. In addition, the IC50 on human PI3K(p110α/p85α) worked out at 0.014 µM.
Turning to `Nc1ncc(-c2nc(N3CCOCC3)nc3c2CCN3c2ccc(C(=O)NCc3cccnc3)cc2)cn1` [Example D-19, 4-[4-(2-Amino-pyrimidin-5-yl)-2-morpholin-4-yl-5,6-dihydro-pyrrolo[2,3-d]pyrimidin-7-yl]-N-pyridin-3-ylmethyl-benzamide], the inhibition at 2.5 µM was found to be 73% in assay [1], 102% in assay [2] and 97% in assay [3]. The IC50 at human PI3K(p110α/p85α) turned out to be 0.06 µM.
With `Nc1ncc(-c2nc(N3CCOCC3)nc3c2CCN3c2cccnc2)cn1` [Example B-02, 5-(2-Morpholin-4-yl-7-pyridin-3-yl-6,7-dihydro-5H-pyrrolo[2,3-d]pyrimidin-4-yl)-pyrimidin-2-ylamine], the inhibition at 2.5 µM in assay [1] stood at 87%; in assay [2], 96%; in assay [3], 95%. Further, on human PI3K(p110α/p85α), the 50% inhibitory concentration (IC50) stood at 0.03 µM.
On to `CCN1CCN(c2ccc(NC(=O)N3CCc4c(-c5cnc(N)nc5)nc(N5CCOCC5)nc43)c(C)c2)CC1` [Example D-242, 4-(2-Amino-pyrimidin-5-yl)-2-morpholin-4-yl-5,6-dihydro-pyrrolo[2,3-d]pyrimidine-7-carboxylic acid [4-(4-ethyl-piperazin-1-yl)-2-methyl-phenyl]-amide], for which the inhibition at 2.5 µM is 99% in assay [1], 100% in assay [2] and 55% in assay [3]. On human PI3K(p110α/p85α), the IC50 is 0.01 µM.
`Nc1ncc(-c2nc(N3CCOCC3)nc3c2CCN3c2ccc(C(=O)N3CCC(N4CCOCC4)CC3)cc2)cn1` [Example D-307, {4-[4-(2-Amino-pyrimidin-5-yl)-2-morpholin-4-yl-5,6-dihydro-pyrrolo[2,3-d]pyrimidin-7-yl]-phenyl}-(4-morpholin-4-yl-piperidin-1-yl)-methanone]: the inhibition at 2.5 µM in assay [1] worked out at 87%; in assay [2] it was 89%; in assay [3], 58%. Also, on human PI3K(p110α/p85α), the half-inhibitory concentration (IC50) amounted to 0.009 µM.

As usually defined, the IC50 is the concentration at which inhibition is half-maximal.
